Test results taken from PMC8222354 (2021).

Legend:
[1] = test system: Tt preQ1-I RNA C15U (RNA, riboswitch) CUGGGUCGCAGUAAUCCCAGUUAACAAAACAAG; assay: isothermal titration calorimetry; details: 100 mM KCl, 2 mM MgCl2; 50 mM MES, pH 6.0, 20 °C
[2] = test system: Tt preQ1-I RNA wildtype (RNA, riboswitch) CUGGGUCGCAGUAACCCCAGUUAACAAAACAAG; assay: methylation kinetics, anion-exchange HPLC (kobs versus ligand concentration); details: 100 mM KCl, 2 mM MgCl2; MES, pH 6.0, 37 °C; apparent Michaelis constant; ligand methylates C15 N3 (covalent methyl transfer)
[3] = test system: Tt preQ1-I RNA wildtype (RNA, riboswitch) CUGGGUCGCAGUAACCCCAGUUAACAAAACAAG; assay: isothermal titration calorimetry; details: 100 mM KCl, 2 mM MgCl2; 50 mM MES, pH 6.0, 20 °C

Compound: COc1nc(N)nc2[nH]cc(CN)c12
- Kd^ITC [1]: 72.2 ± 2.1 µM
- Km,app [2]: ~ 230 μM

Compound: NCc1c[nH]c2nc(N)[nH]c(=O)c12
- Kd^ITC [3]: 0.043 ± 0.0019 µM
